Data taken from patent US11091486B2, “Process for the preparation of pyrazolo[1,5-a]pyrimidines and salts thereof” (Array BioPharma Inc., priority 2016, dated 2021).

Tests used:
MDR1 (P-gp) = target: T1, MDR1 (P-gp) (Homo sapiens, UniProt P08183); experiment: MDR1 efflux in MDR1 transfected LLC-PK1 cells (Example 35); assay type: in vitro ADME; details: pig, MDR1 transfected LLC-PK1 monolayers, read-out: MDRI efflux ratio
T1 construct: expressed in transfected cells; host or cells: LLC-PK1 cells
T1 sequence (P08183 whole entry): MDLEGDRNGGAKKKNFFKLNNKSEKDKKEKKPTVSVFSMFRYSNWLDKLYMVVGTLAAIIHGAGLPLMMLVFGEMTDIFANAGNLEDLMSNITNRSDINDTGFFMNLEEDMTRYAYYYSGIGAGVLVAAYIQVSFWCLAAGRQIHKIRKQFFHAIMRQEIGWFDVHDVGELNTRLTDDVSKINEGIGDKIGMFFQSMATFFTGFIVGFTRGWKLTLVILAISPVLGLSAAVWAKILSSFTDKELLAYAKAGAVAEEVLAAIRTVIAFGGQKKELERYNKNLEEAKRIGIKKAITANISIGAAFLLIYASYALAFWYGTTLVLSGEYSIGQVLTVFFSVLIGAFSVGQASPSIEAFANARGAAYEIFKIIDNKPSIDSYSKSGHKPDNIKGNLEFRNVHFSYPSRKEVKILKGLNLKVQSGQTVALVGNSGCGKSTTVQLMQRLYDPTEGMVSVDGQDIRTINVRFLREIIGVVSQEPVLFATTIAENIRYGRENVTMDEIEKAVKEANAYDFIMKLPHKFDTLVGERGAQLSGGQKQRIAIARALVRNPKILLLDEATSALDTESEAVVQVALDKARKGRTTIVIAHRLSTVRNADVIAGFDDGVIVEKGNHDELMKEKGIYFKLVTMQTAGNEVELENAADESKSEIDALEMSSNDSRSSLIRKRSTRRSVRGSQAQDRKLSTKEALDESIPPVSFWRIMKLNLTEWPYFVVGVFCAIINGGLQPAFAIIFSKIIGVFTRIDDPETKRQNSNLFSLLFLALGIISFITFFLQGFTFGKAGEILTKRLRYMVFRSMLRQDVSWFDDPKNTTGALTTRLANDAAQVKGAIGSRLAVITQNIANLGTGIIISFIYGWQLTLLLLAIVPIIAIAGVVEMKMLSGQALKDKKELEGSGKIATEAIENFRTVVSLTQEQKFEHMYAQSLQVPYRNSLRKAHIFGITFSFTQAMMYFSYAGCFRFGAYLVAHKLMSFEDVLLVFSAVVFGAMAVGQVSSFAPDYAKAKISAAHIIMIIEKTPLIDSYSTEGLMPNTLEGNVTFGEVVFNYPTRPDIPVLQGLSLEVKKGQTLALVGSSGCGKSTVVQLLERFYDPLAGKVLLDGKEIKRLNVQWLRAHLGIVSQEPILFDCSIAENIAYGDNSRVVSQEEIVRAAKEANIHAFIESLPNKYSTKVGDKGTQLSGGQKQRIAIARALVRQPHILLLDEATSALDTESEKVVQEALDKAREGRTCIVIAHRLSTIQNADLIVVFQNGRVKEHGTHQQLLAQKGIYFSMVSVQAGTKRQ
Protocol: Both LLC-PK1 and MDR1 transfected LLC-PK1 cells were cultured and plated according to manufacturer's recommendations with the exception that the passage media contained only 2% fetal bovine serum so as to extend passage time out to seven days.
Both positive and negative controls were used to assess functionality of P-gp efflux in the assay. Stock solutions for assay controls and the test article were prepared in DMSO for a final test concentrations of 10 μM. Final organic concentration in the assay was 1%. All dosing solutions contained 10 μM lucifer yellow to monitor LLC-PK1 cell monolayer integrity.
For the apical to basolateral determination (A to B), 75 μL of the test article in transport buffer were added to the apical side of the individual transwells and 250 μL of basolateral media, without compound or lucifer yellow, were added to each well. […] The plates were read using a Molecular Devices (Sunnyvale, Calif.) Gemini Fluorometer to evaluate the lucifer yellow concentrations at excitation/emission wavelengths of 425/535 nm. […] The plates were sealed and the contents of each well analyzed by LC-MS/MS. The compound concentrations were determined from the ratio of the peak areas of the compound to the internal standard (labetalol) in comparison to the dosing solution.
Permeability (Papp) was calculated in BioAssay v. […]

hERG = target: T2, hERG (Homo sapiens, UniProt Q12809); experiment: hERG ChanTest Fast Patch assay; assay type: cell-based
T2 construct: Charles River Laboratories International, Inc. (ChanTest assay service)
T2 sequence (Q12809 whole entry): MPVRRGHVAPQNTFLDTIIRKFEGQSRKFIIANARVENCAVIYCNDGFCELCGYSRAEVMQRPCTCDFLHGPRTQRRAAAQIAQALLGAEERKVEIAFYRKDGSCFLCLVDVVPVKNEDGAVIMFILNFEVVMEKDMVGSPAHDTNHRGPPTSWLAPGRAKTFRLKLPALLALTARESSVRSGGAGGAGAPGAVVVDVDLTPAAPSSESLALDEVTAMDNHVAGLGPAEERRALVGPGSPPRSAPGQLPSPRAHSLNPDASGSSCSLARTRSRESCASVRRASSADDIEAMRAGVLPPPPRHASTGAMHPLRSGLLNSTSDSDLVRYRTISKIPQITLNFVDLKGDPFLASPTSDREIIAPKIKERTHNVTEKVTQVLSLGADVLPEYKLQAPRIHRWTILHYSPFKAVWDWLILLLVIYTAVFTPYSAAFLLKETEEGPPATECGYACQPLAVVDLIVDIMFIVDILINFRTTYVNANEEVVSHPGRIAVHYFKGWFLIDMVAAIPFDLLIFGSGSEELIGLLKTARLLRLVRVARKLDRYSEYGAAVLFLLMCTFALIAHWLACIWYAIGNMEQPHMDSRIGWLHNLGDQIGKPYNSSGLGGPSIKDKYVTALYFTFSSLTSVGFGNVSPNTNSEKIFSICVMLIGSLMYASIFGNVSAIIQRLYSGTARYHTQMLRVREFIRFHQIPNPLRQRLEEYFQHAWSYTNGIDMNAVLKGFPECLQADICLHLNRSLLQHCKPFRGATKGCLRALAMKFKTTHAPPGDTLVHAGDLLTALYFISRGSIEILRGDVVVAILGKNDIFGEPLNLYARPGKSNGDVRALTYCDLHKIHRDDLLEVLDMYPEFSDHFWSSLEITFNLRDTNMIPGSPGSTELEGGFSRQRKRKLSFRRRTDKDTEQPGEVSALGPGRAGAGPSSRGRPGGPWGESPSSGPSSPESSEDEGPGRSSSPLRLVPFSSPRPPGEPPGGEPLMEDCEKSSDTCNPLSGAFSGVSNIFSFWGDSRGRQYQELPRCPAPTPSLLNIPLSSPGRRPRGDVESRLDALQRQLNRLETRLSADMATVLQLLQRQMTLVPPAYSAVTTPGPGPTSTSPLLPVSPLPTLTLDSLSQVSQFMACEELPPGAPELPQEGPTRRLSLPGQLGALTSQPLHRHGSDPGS
Protocol: The MDR1 efflux protocol is disclosed in Example 35 hereinbelow. The hERG IC50 values were measured using the ChanTest Fast Patch assay, available from Charles River Laboratories International, Inc. (http://www.criver.com/products-services/drug-discovery/cap abilities/ion-channel/selectivity-profiling).

[1] = Thermodynamic aqueous solubility of a crystalline solid (Example 33); assay type: physicochemical; details: aqueous phosphate buffer, thermodynamic from solid, pH 6.5 buffer, 24 hours at room temperature
Protocol: General method to measure the thermodynamic aqueous solubility of a crystalline, organic solid.
To make a 0.03 M (30 mM) Phosphate Buffer (25° C.) at pH 7.4, the above recipe was adjusted as follows: 6.72 mL of 1 M potassium phosphate (monobasic) were mixed with 23.28 mL of 1 M potassium phosphate (dibasic) and diluted to one liter with water. The pH was adjusted with HCl or NaOH. Alternatively, 0.9144 g (6.72×10^−3 mol) of potassium phosphate monobasic were mixed with 4.0908 g (23.28×10^−3 mol) of potassium phosphate dibasic and diluted to 1 L with water to get a 30 mM solution of Phosphate Buffer (25° C.).
2. Aqueous phosphate buffer, 30 mM, adjusted to pH 6.5
1. ˜0.5 mg of compound were dissolved in 2.5% DMSO/MeOH (or other organic) to a final concentration of 250 μg/mL stock
• 1. ≥0.5 mg of compound were accurately weighed into a 4-mL vial for each pH to be tested. • 2. The appropriate amount of desired buffer was added to the appropriate vials to get a resulting concentration of 1.02 mg/mL. • 3. Vials were capped and shaken at 350 rpm for 24 hours at room temperature. • 4. ˜450 μL of sample solutions were pipetted from 4-mL vials into 96 DWP. • 5. The plate was centrifuged at 3500 rpm for 10 minutes at 20° C. and 250 μL of supernatant were transferred to catch plate. • 6. […]
4. The model was used to quantify the amount of compound in the aqueous solutions. […]

Row | SMILES | efflux ratio at 2 h, 10 μM (MDR1 (P-gp)) | IC50 (hERG) [µM] | solubility at 24 h [1] [µg/mL]
1 | C[C@@H]1CCc2ncc(F)cc2[C@H]2CCCN2c2ccn3ncc(c3n2)C(=O)N1 [Formula I] | 14 | 27 | 111
2 | C[C@H]1CCc2ncc(F)cc2[C@H]2CCCN2c2ccn3ncc(c3n2)C(=O)N1 [formula I′] | 5 | 9 | 43
